This is an account of results in patent US12559506B2, “Indazole based compounds and associated methods of use” (Arvinas Operations, Inc., priority 2021, dated 2026).

The target in the assay is T1, LRRK2 (endogenous, HiBit tagged) (Homo sapiens, UniProt Q5S007).
T1 construct: endogenous in cells; host or cells: HEK293 cells with HiBit knock-in at the endogenous LRRK2 locus, stably expressing firefly luciferase
Nature of the assay: Endogenous LRRK2 degradation assay, endogenous gene C-terminally HiBit-tagged in HEK293 cells (Nano-Glo Dual Luciferase). The assay is classed as cell-based. The gist of the method: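 LRRK2-HiBit quantified via Nano-Glo Dual Luciferase in HEK293 knock-in cells co-expressing firefly luciferase, after 24 h exposure to compound (1 μM final top, 1:3, 11 points). Values normalised to DMSO median per plate and curve-fitted; Alamar Blue viability run alongside.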

The mark [1] stands for this setting: endogenous HiBit-tagged LRRK2 in HEK293 cells, 24 hours treatment, read-out: **Endogenous WT Dmax (%).
Where [2] appears, read: endogenous HiBit-tagged LRRK2 in HEK293 cells, 24 hours treatment, read-out: *Endogenous WT DC50.
[3] abbreviates: endogenous HiBit-tagged LRRK2, HEK293 cells, 24 hours, read-out: **Endogenous WT Dmax (%).
Setting [4] is: endogenous HiBit-tagged LRRK2, HEK293 cells, 24 hours, read-out: *Endogenous WT DC50.
The mark [5] stands for this setting: endogenous HiBit-tagged LRRK2 in HEK293 cells, 24 hours treatment, read-out: Endogenous WT DC50.
Setting [6] is: endogenous HiBit-tagged LRRK2 in HEK293 cells, 24 hours treatment, read-out: Endogenous WT Dmax.

Where two headings read alike, the source gives them in different places.

T1 sequence (Q5S007 whole entry): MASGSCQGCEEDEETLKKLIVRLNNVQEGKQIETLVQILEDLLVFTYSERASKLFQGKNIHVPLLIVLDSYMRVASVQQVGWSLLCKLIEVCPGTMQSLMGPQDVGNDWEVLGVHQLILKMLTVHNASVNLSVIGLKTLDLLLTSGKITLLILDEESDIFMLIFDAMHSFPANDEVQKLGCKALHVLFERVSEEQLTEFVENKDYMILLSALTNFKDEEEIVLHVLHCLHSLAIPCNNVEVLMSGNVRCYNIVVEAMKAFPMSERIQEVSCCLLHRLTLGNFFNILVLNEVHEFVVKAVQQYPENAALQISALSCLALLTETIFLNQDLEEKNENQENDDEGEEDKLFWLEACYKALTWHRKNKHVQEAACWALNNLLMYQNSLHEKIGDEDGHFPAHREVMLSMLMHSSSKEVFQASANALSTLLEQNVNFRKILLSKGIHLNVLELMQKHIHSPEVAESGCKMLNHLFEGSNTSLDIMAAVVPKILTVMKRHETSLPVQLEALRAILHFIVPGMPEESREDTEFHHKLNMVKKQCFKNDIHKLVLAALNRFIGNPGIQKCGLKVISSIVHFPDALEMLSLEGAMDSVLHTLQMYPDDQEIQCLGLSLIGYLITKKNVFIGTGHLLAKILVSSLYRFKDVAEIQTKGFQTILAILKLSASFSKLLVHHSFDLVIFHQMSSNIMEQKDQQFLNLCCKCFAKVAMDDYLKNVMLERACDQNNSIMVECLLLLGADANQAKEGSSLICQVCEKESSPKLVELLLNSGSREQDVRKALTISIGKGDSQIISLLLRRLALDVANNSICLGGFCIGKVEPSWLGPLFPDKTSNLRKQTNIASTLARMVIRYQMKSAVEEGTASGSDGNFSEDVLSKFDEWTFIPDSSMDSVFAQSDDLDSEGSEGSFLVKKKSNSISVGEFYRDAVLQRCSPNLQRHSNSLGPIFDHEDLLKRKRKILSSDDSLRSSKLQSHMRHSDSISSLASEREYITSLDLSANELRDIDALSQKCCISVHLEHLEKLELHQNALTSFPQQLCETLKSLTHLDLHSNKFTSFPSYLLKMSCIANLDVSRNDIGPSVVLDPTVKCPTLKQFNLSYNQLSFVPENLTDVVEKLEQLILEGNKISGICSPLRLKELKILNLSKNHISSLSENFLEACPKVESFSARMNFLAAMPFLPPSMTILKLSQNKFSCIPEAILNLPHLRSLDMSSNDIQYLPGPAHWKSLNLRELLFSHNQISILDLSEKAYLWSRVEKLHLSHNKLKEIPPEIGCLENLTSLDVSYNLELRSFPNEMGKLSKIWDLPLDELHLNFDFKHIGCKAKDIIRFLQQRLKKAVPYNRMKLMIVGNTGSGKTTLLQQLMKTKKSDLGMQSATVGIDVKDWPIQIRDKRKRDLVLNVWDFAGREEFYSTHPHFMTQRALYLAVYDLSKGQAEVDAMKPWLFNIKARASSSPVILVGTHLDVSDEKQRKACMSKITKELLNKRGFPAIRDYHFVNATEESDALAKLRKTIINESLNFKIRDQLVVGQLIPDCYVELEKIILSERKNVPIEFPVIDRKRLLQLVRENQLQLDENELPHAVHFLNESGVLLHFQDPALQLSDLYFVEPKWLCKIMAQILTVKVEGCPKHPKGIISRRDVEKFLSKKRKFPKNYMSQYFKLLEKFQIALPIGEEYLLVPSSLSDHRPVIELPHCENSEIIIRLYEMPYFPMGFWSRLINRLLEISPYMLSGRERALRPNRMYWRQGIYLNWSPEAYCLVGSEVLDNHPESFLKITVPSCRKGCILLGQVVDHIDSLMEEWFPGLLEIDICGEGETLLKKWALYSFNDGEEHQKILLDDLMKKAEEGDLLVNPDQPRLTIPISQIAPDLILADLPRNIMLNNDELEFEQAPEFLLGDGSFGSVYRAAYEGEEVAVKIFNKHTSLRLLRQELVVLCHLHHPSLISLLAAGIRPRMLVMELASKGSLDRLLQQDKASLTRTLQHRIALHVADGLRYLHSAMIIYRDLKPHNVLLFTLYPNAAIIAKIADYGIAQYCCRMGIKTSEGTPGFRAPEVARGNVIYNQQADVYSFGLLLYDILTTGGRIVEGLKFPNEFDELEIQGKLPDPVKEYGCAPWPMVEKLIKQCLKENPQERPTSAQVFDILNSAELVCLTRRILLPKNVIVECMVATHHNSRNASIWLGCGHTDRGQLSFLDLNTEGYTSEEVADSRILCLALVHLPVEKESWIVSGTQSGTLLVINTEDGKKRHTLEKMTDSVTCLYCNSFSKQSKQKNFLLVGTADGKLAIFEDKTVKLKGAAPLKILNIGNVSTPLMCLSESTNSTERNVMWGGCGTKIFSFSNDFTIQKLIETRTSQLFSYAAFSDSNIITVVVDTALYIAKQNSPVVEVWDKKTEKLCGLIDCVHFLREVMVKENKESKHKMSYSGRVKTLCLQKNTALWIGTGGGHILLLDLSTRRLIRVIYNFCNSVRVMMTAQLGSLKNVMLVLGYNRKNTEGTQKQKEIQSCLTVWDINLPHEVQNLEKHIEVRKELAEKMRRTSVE

Take `CC1(Oc2ccc3n[nH]c(-c4cc(N5CCC(O[C@H]6C[C@H](N7CCC8(CC7)CN(c7ccc9c(c7F)CN(C7CCC(=O)NC7=O)C9=O)C8)C6)CC5)ncn4)c3c2)CC1` (some centres unmarked) [Compound 323, 3-(4-fluoro-1-oxo-5-{7-[(1r,3r)-3-[(1-{6-[5-(1-methylcyclopropoxy)-2H-indazol-3-yl]pyrimidin-4-yl}piperidin-4-yl)oxy]cyclobutyl]-2,7-diazaspiro[3.5]nonan-2-yl}-2,3-dihydro-1H-isoindol-2-yl)piperidine-2,6-dione]: the Dmax under setting [1] was 50 to 70%. Also, under setting [2], the DC50 is < 10 nM.

`CC1(Oc2ccc3n[nH]c(-c4cc(N5CCC(CO[C@H]6CC[C@H](CN7CCN(c8ccc9c(c8)C(=O)N(C8CCC(=O)NC8=O)C9=O)CC7)CC6)CC5)ncn4)c3c2)CC1` (some centres unmarked) [Compound 60, 2-(2,6-dioxo-3-piperidyl)-5-[4-[[4-[[1-[6-[5-(1-methylcyclopropoxy)-2H-indazol-3-yl]pyrimidin-4-yl]-4-piperidyl]methoxy]cyclohexyl]methyl]piperazin-1-yl]isoindoline-1,3-dione]: the Dmax (endogenous HiBit-tagged LRRK2 in HEK293 cells, 24 hours, read-out: **Endogenous WT Dmax (%)) was ≥ 70%. In addition, the DC50 (endogenous HiBit-tagged LRRK2 in HEK293 cells, 24 hours, read-out: *Endogenous WT DC50) is < 10 nM.

For the compound `CC1(Oc2ccc3[nH]nc(-c4cc(N5CCC(CN6CCC(F)(CN7CCN(c8cc9c(cc8F)C(=O)N(C8CCC(=O)NC8=O)C9)CC7)CC6)CC5)ncn4)c3c2)CC1` (centres unmarked) [Compound 188, 3-[6-fluoro-5-[4-[[4-fluoro-1-[[1-[6-[5-(1-methylcyclopropoxy)-1H-indazol-3-yl]pyrimidin-4-yl]-4-piperidyl]methyl]-4-piperidyl]methyl]piperazin-1-yl]-1-oxo-isoindolin-2-yl]piperidine-2,6-dione], the Dmax under setting [3] was ≥ 70%. The DC50 under setting [4] was < 10 nM.

Take `CC1(Oc2ccc3[nH]nc(-c4cc(N5CCC(CN6CC[C@@H](OC7CCN(c8ccc9c(c8F)CN(C8CCC(=O)NC8=O)C9=O)CC7)CC6(C)C)CC5)ncn4)c3c2)CC1` (stereo partly drawn) [Compound 310, 3-[5-(4-{[(4R)-2,2-dimethyl-1-[(1-{6-[5-(1-methylcyclopropoxy)-1H-indazol-3-yl]pyrimidin-4-yl}piperidin-4-yl)methyl]piperidin-4-yl]oxy}piperidin-1-yl)-4-fluoro-1-oxo-2,3-dihydro-1H-isoindol-2-yl]piperidine-2,6-dione]: under setting [1], the Dmax lay in the range of 50 to 70%. Besides, the half-maximal degradation concentration (DC50) under setting [2] was < 10 nM.

Consider `COc1c(N2CCC(N3CC(F)(CC4CCN(c5cc(-c6[nH]nc7ccc(OC8(C)CC8)cc67)ncn5)CC4)C3)CC2)ccc2c1CN(C1CCC(=O)NC1=O)C2=O` (centres unmarked) [Compound 345, 3-(5-(4-(3-fluoro-3-((1-(6-(5-(1-methylcyclopropoxy)-2H-indazol-3-yl)pyrimidin-4-yl)piperidin-4-yl)methyl)azetidin-1-yl)piperidin-1-yl)-4-methoxy-1-oxoisoindolin-2-yl)piperidine-2,6-dione], for which the Dmax under setting [1] is 50 to 70%. In addition, the DC50 under setting [2] was < 10 nM.

On to `CC1(Oc2ccc3[nH]nc(-c4cc(N5CCC(O[C@H]6CC[C@H](CN7CCN(c8c(F)cc9c(c8F)CN(C8CCC(=O)NC8=O)C9=O)CC7)CC6)CC5)ncn4)c3c2)CC1` (some centres unmarked) [Compound 269, 3-[4,6-difluoro-1-oxo-5-(4-{[(1r,4r)-4-[(1-{6-[5-(1-methylcyclopropoxy)-1H-indazol-3-yl]pyrimidin-4-yl}piperidin-4-yl)oxy]cyclohexyl]methyl}piperazin-1-yl)-2,3-dihydro-1H-isoindol-2-yl]piperidine-2,6-dione], for which the Dmax under setting [1] lay within 50 to 70%. In addition, under setting [2], the DC50 was < 10 nM.

For the compound `COc1c(N2CCC(O[C@H]3C[C@H](CN4CCN(c5cc(-c6[nH]nc7ccc(OC8(C)CC8)cc67)ncn5)CC4)C3)CC2)ccc2c1CN(C1CCC(=O)NC1=O)C2=O` (some centres unmarked) [Compound 293, 3-(4-methoxy-1-oxo-5-{4-[(1r,3r)-3-[(4-{6-[5-(1-methylcyclopropoxy)-2H-indazol-3-yl]pyrimidin-4-yl}piperazin-1-yl)methyl]cyclobutoxy]piperidin-1-yl}-2,3-dihydro-1H-isoindol-2-yl)piperidine-2,6-dione], under setting [1], the Dmax was in the range of 50 to 70%. Besides, under setting [2], the DC50 is < 10 nM.

Regarding `CC1(Oc2ccc3[nH]nc(-c4cc(N5CCC(CN6CCN(CC7CCN(c8ccc9c(c8)C(=O)N(C8CCC(=O)NC8=O)C9)CC7)CC6)CC5)ncn4)c3c2)CC1` (centres unmarked) [Compound 241, 3-[6-[4-[[4-[[1-[6-[5-(1-methylcyclopropoxy)-1H-indazol-3-yl]pyrimidin-4-yl]-4-piperidyl]methyl]piperazin-1-yl]methyl]-1-piperidyl]-1-oxo-isoindolin-2-yl]piperidine-2,6-dione], the DC50 under setting [5] is < 10 nM. For the same compound, under setting [6], the Dmax lay within 50 to 70%.

As for `CC1(Oc2ccc3[nH]nc(-c4cc(N5CCC(O[C@H]6CCN(CC7CCN(c8ccc9c(c8F)CN(C8CCC(=O)NC8=O)C9=O)CC7)C(C)(C)C6)CC5)ncn4)c3c2)CC1` (stereo partly drawn) [Compound 308, 3-(5-(4-(((S)-2,2-dimethyl-4-((1-(6-(5-(1-methylcyclopropoxy)-1H-indazol-3-yl)pyrimidin-4-yl)piperidin-4-yl)oxy)piperidin-1-yl)methyl)piperidin-1-yl)-4-fluoro-1-oxoisoindolin-2-yl)piperidine-2,6-dione], under setting [1], the Dmax lay within 50 to 70%. In addition, the DC50 under setting [2] is < 10 nM.

In the case of `CC1(Oc2ccc3[nH]nc(-c4cc(N5CC[C@@H](CN6CCN(CC7CCN(c8ccc9c(c8F)CN(C8CCC(=O)NC8=O)C9=O)CC7)CC6)C5)ncn4)c3c2)CC1` (stereo partly drawn) [Compound 327, 3-(4-fluoro-5-{4-[(4-{[(3S)-1-{6-[5-(1-methylcyclopropoxy)-1H-indazol-3-yl]pyrimidin-4-yl}pyrrolidin-3-yl]methyl}piperazin-1-yl)methyl]piperidin-1-yl}-1-oxo-2,3-dihydro-1H-isoindol-2-yl)piperidine-2,6-dione], the Dmax under setting [1] fell in the range of 50 to 70%. For the same compound, under setting [2], the DC50 was < 10 nM.

Regarding `C[C@H]1CN(c2cc(-c3n[nH]c4ccc(OC5(C)CC5)cc34)ncn2)CCN1CC1(F)CCN(CC2CCN(c3ccc4c(c3F)CN(C3CCC(=O)NC3=O)C4=O)CC2)CC1` (stereo partly drawn) [Compound 187, 3-[4-fluoro-5-[4-[[4-fluoro-4-[[(2S)-2-methyl-4-[6-[5-(1-methylcyclopropoxy)-1H-indazol-3-yl]pyrimidin-4-yl]piperazin-1-yl]methyl]-1-piperidyl]methyl]-1-piperidyl]-1-oxo-isoindolin-2-yl]piperidine-2,6-dione], the Dmax under setting [3] was ≥ 70%. Also, under setting [4], the DC50 was < 10 nM.

Take `CC1(Oc2ccc3n[nH]c(-c4cc(N5CCC(CN6CC(F)(CC7CCN(c8ccc9c(c8F)CN(C8CCC(=O)NC8=O)C9=O)CC7)C6)CC5)ncn4)c3c2)CC1` (centres unmarked) [Compound 337, 3-{4-fluoro-5-[4-({3-fluoro-1-[(1-{6-[5-(1-methylcyclopropoxy)-2H-indazol-3-yl]pyrimidin-4-yl}piperidin-4-yl)methyl]azetidin-3-yl}methyl)piperidin-1-yl]-1-oxo-2,3-dihydro-1H-isoindol-2-yl}piperidine-2,6-dione]: the Dmax under setting [1] is ≥ 70%. Also, the DC50 under setting [2] is < 10 nM.

As for `CC1(Oc2ccc3[nH]nc(-c4cc(N5CCN(C[C@@H]6CC[C@@H](CN7CCN(c8ccc9c(c8F)CN(C8CCC(=O)NC8=O)C9=O)CC7)OC6)CC5)ncn4)c3c2)CC1` (single isomer, unassigned) [Compound 305], the Dmax under setting [1] was 50 to 70%. For the same compound, the DC50 under setting [2] was < 10 nM.

Turning to `CC1(Oc2ccc3n[nH]c(-c4cc(N5CCC(O[C@H]6C[C@H](N7CC[C@@H](c8ccc9c(c8)CN(C8CCC(=O)NC8=O)C9=O)[C@@H](F)C7)C6)CC5)ncn4)c3c2)CC1` (some centres unmarked) [Compound 342, 3-{5-[(3r,4s)-3-fluoro-1-[(1r,3r)-3-[(1-{6-[5-(1-methylcyclopropoxy)-2H-indazol-3-yl]pyrimidin-4-yl}piperidin-4-yl)oxy]cyclobutyl]piperidin-4-yl]-1-oxo-2,3-dihydro-1H-isoindol-2-yl}piperidine-2,6-dione], the Dmax under setting [1] was in the range of 50 to 70%. Further, the DC50 under setting [2] is < 10 nM.

Turning to `COc1c(N2CCC(CN3CCN(CC4CCN(c5cc(-c6n[nH]c7ccc(OC8(C)CC8)cc67)ncn5)CC4)[C@H](C)C3)CC2)ccc2c1CN(C1CCC(=O)NC1=O)C2=O` (stereo partly drawn) [Compound 255, 3-[4-methoxy-5-(4-{[(3R)-3-methyl-4-[(1-{6-[5-(1-methylcyclopropoxy)-1H-indazol-3-yl]pyrimidin-4-yl}piperidin-4-yl)methyl]piperazin-1-yl]methyl}piperidin-1-yl)-1-oxo-2,3-dihydro-1H-isoindol-2-yl]piperidine-2,6-dione], the DC50 under setting [5] was < 10 nM. Also, under setting [6], the Dmax was in the range of 50 to 70%.

As for `C[C@H]1CN(c2cc(-c3n[nH]c4ccc(OC5(C)CC5)cc34)ncn2)CCN1CCN1CCC2(CN(c3ccc4c(c3F)CN(C3CCC(=O)NC3=O)C4=O)C2)C(F)(F)C1` (stereo partly drawn) [Compound 317, 3-[5-(5,5-difluoro-7-{2-[(2S)-2-methyl-4-{6-[5-(1-methylcyclopropoxy)-1H-indazol-3-yl]pyrimidin-4-yl}piperazin-1-yl]ethyl}-2,7-diazaspiro[3.5]nonan-2-yl)-4-fluoro-1-oxo-2,3-dihydro-1H-isoindol-2-yl]piperidine-2,6-dione], under setting [1], the Dmax fell in the range of 50 to 70%. For the same compound, the DC50 under setting [2] was < 10 nM.
